Test results from US9770026B2, “Substituted pyrimidine compound and uses thereof” (Shenyang Sinochem Agrochemicals R&D Co., Ltd., priority 2012, dated 2017).

What was measured:
corn rust = experiment: protectant activity in vivo against corn rust; details: for pest or weed control at 400 µg/mL: read-out: control effect against corn rust (%), 400 mg/L
[1] = tested on: Green peach aphids (Myzus Persicae Sulzer); experiment: bioactivity test against green peach aphid, airbrush foliar spray; type: in vivo; details: for control (test results against green peach aphid): death rate after 48 hrs
Summary of the method: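 Aphids (15-30 per cabbage leaf disc) on moist filter paper were airbrush-sprayed at 10 psi, 0.5 mL, with compound from acetone:methanol (1:1) diluted in water with 0.1% tween 80. Held at 25±1 C, 60±5% RH; survivors counted after 48 hrs to give death rates.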

wheat powdery mildew = experiment: protectant activity in vivo against wheat powdery mildew; details: for pest or weed control at 400 µg/mL: read-out: control effect against wheat powdery mildew (%), 400 mg/L
Diamond back moth = experiment: insecticidal activity against diamond back moth, airbrush spray; type: in vivo; details: for pest or weed control at 600 µg/mL: 72 h; for control (test results against diamond back moth): 600 ppm, mortality after 72 hrs
Procedure: (§1) Compounds were dissolved in mixed solvent (acetone:methanol=1:1), and diluted to required concentration with water containing 0.1% of tween 80.
(§2) Diamond back moth, armyworm, peach aphid and carmine spider mite were used as targets and the method of spraying by airbrush was used for determination of insecticidal biassays.
(§3) The method of spraying by airbrush: The cabbage leaves were made into plates of 2 cm diameter by use of punch. A test solution (0.5 ml) was sprayed by airbrush at the pressure of 0.7 kg/cm^2 to both sides of every plate. 10 Second instar larvae were put into the petri-dishes after the leaf disc air-dried and 3 replicates were set for each treatment. Then the insects were maintained in observation room (25° C., 60˜70% R.H.). Scores were conducted and mortalities were calculated after 72 hrs.

cucumber downy mildew = experiment: protectant activity in vivo against cucumber downy mildew; details: for pest or weed control at 400 µg/mL: read-out: control effect against cucumber downy mildew (%), 400 mg/L
armyworm = experiment: bioactivity test against armyworm, airbrush spray; type: in vivo; details: for Insecticidal activity against armyworm (%) / pest or weed control at 600 µg/mL: 600 mg/L; for pest or weed control at 600 µg/mL: 72 h, read-out: Insecticidal activity against armyworm (%); for control (test results against armyworm): 600 ppm, mortality after 72 h
Procedure: as §1, §2
as §3, with “corn” for “cabbage”, “(25 °C,” for “(25° C.,”, “h.” for “hrs.”

carmine spider mite = experiment: bioactivity test against carmine spider mite, airbrush spray; type: in vivo; details: mortality after 72 hrs
Procedure: as §1, §2
The method: Broadbean shoots with two true leaves in pot were taken, the healthy adults of carmine spider mite were inoculated to the leaves. The adults were counted and then sprayed with airbrush at the pressure of 0.7 kg/cm^2 and at dose of 0.5 ml. 3 replicates were set for each treatment. And then they were maintained in standard observation room. Scores were conducted and mortalities were calculated after 72 hrs.

[2] = Zea mays, 168 h, protectant activity
[3] = Triticum aestivum, 168 h, protectant activity
[4] = Cucumis sativus, 168 h, protectant activity

Structure (SMILES) | control effect against corn rust (%) (corn rust; 400 mg/L, protectant activity) | Insecticidal activity against peach aphid (%) ([1]; 10 mg/L, contrastive test) | Insecticidal activity against peach aphid (%) ([1]; 100 mg/L, contrastive test) | Insecticidal activity against peach aphid (%) ([1]; 600 mg/L, contrastive test) | control effect against cucumber downy mildew (%) (cucumber downy mildew; 25 mg/L, protectant activity) | control effect against cucumber downy mildew (%) (cucumber downy mildew; 50 mg/L, protectant activity) | control effect against cucumber downy mildew (%) (cucumber downy mildew; 100 mg/L, protectant activity) | control effect against cucumber downy mildew (%) (cucumber downy mildew; 400 mg/L, protectant activity) | protectant activity against corn rust in vivo (corn rust; 400 ppm) [%] | control (test results against green peach aphid) ([1]; 100 ppm) [%] | control (test results against green peach aphid) ([1]; 600 ppm) [%] | protectant activity against wheat powdery mildew in vivo (wheat powdery mildew; 400 ppm) [%] | control (test results against diamond back moth) (Diamond back moth) [%] | control (test results against armyworm) (armyworm) [%] | protectant activity against corn rust in vivo (corn rust; 100 ppm) [%] | protectant activity against cucumber downy mildew in vivo (cucumber downy mildew; 400 ppm) [%] | control against carmine spider mite (carmine spider mite; 600 ppm) [%] | protectant activity against cucumber downy mildew in vivo (cucumber downy mildew; 50 ppm) [%] | protectant activity against cucumber downy mildew in vivo (cucumber downy mildew; 100 ppm) [%] | further results
CCc1ncnc(NC(C)c2ccc(Oc3ccc(F)cc3)nc2)c1Cl (centres unmarked) [CK9, reference compound] | 100 | 23 | 79 | 100 | 70 | 90 | 98 | 100 |  |  |  |  |  |  |  |  |  |  |  | control effect against corn rust (%) (corn rust; 6.25 mg/L, protectant activity): 0%; control effect against corn rust (%) (corn rust; 25 mg/L, protectant activity): 20%; control effect against corn rust (%) (corn rust; 100 mg/L, protectant activity): 100%; control effect against wheat powdery mildew (%) (wheat powdery mildew; 6.25 mg/L, protectant activity): 0%; control effect against wheat powdery mildew (%) (wheat powdery mildew; 25 mg/L, protectant activity): 0%; control effect against wheat powdery mildew (%) (wheat powdery mildew; 100 mg/L, protectant activity): 0%; control effect against wheat powdery mildew (%) (wheat powdery mildew; 400 mg/L, protectant activity): 100%; Insecticidal activity against diamond back moth (%) (Diamond back moth; 10 mg/L): 25%; Insecticidal activity against diamond back moth (%) (Diamond back moth; 100 mg/L): 45%; Insecticidal activity against diamond back moth (%) (Diamond back moth; 600 mg/L): 100%; Insecticidal activity against armyworm (%) (armyworm): 40%
CCc1ncnc(NC(C)c2ccc(Oc3ccc(C(C)(C)C)cc3)nc2)c1Cl (centres unmarked) [CK10, reference compound] | 50 | 23 | 91 | 100 | 20 | 40 | 82 | 100 |  |  |  |  |  |  |  |  |  |  |  | control effect against wheat powdery mildew (%) (wheat powdery mildew; 400 mg/L, protectant activity): 50%; Insecticidal activity against diamond back moth (%) (Diamond back moth; 600 mg/L): 33%; Insecticidal activity against armyworm (%) (armyworm): 0%
Cc1ncnc(NC(C)c2ccc(Oc3nc(Cl)c(Cl)cc3Cl)cc2)c1Cl (centres unmarked) [CK29, reference compound] |  |  |  |  |  |  |  |  |  |  |  |  |  |  |  |  |  |  |  | pest or weed control at 6.25 µg/mL (corn rust; Zea mays, 168 h, read-out: control effect against corn rust (%), 6.25 mg/L, protectant activity): 30%; pest or weed control at 25 µg/mL (corn rust; Zea mays, 168 h, read-out: control effect against corn rust (%), 25 mg/L, protectant activity): 85%; pest or weed control at 100 µg/mL (corn rust; Zea mays, 168 h, read-out: control effect against corn rust (%), 100 mg/L, protectant activity): 95%; pest or weed control at 400 µg/mL (corn rust; [2]): 100%; pest or weed control at 600 µg/mL ([1]; Myzus persicae, foliar, 48 h, 600 mg/L, contrastive test, read-out: Insecticidal activity against peach aphid (%)): 0%; pest or weed control at 6.25 µg/mL (wheat powdery mildew; Triticum aestivum, 168 h, read-out: control effect against wheat powdery mildew (%), 6.25 mg/L, protectant activity): 40%; pest or weed control at 25 µg/mL (wheat powdery mildew; Triticum aestivum, 168 h, read-out: control effect against wheat powdery mildew (%), 25 mg/L, protectant activity): 50%; pest or weed control at 100 µg/mL (wheat powdery mildew; Triticum aestivum, 168 h, read-out: control effect against wheat powdery mildew (%), 100 mg/L, protectant activity): 80%; pest or weed control at 400 µg/mL (wheat powdery mildew; [3]): 100%; pest or weed control at 600 µg/mL (Diamond back moth; 600 mg/L): 0%; pest or weed control at 25 µg/mL (cucumber downy mildew; Cucumis sativus, 168 h, read-out: control effect against cucumber downy mildew (%), 25 mg/L, protectant activity): 25%; pest or weed control at 50 µg/mL (cucumber downy mildew; Cucumis sativus, 168 h, read-out: control effect against cucumber downy mildew (%), 50 mg/L, protectant activity): 90%; pest or weed control at 100 µg/mL (cucumber downy mildew; Cucumis sativus, 168 h, read-out: control effect against cucumber downy mildew (%), 100 mg/L, protectant activity): 98%; pest or weed control at 400 µg/mL (cucumber downy mildew; [4]): 98%; pest or weed control at 600 µg/mL (armyworm): 14%
COc1cc(NCCc2ccc(Oc3ncc(C(F)(F)F)cc3Cl)cc2)ncn1 [CK71, reference compound] |  |  |  |  |  |  |  |  |  |  |  |  |  |  |  |  |  |  |  | pest or weed control at 400 µg/mL (corn rust; [2]): 0%; pest or weed control at 400 µg/mL (wheat powdery mildew; [3]): 100%; pest or weed control at 600 µg/mL (Diamond back moth; 600 mg/L): 0%; pest or weed control at 400 µg/mL (cucumber downy mildew; [4]): 80%; pest or weed control at 600 µg/mL (armyworm): 86%
Cc1ncnc(NCCc2ccc(Oc3ccc(Cl)nn3)cc2)c1Br [Compound I-4121] |  |  |  |  |  |  |  |  | 100 | 100 | 100 | 100 | 100 | 100 |  |  |  |  |  | control (test results against green peach aphid) ([1]; 10 ppm): 100%
Cc1ncnc(NCCc2ccc(Oc3ccc(C(F)(F)F)cc3Cl)cc2)c1Cl [II-154] | 100 |  |  |  |  |  |  |  | 100 | 100 | 100 | 100 | 100 |  | 100 | 100 | 100 |  |  | control effect against corn rust (%) (corn rust; 1.6 mg/L, protectant activity): 50%; control effect against corn rust (%) (corn rust; 6.25 mg/L, protectant activity): 100%; control effect against corn rust (%) (corn rust; 25 mg/L, protectant activity): 100%; control effect against corn rust (%) (corn rust; 100 mg/L, protectant activity): 100%; protectant activity against corn rust in vivo (corn rust; 6.25 ppm): 100%; protectant activity against corn rust in vivo (corn rust; 25 ppm): 100%; protectant activity against wheat powdery mildew in vivo (wheat powdery mildew; 100 ppm): 100%; control against carmine spider mite (carmine spider mite; 100 ppm): 100%
COc1cc(CCNc2ncnc(C)c2Cl)ccc1Oc1ccc(Cl)cc1 [II-1687] |  | 100 | 100 | 100 |  |  |  |  | 100 | 100 | 100 | 100 | 100 |  | 100 | 100 | 100 | 100 | 100 | control (test results against green peach aphid) ([1]; 10 ppm): 100%; protectant activity against wheat powdery mildew in vivo (wheat powdery mildew; 25 ppm): 100%; protectant activity against wheat powdery mildew in vivo (wheat powdery mildew; 100 ppm): 100%
Cc1ncnc(NCCc2ccc(Oc3cccc(Cl)c3)nc2)c1Cl [III-6] |  |  |  |  |  |  |  |  | 100 |  | 100 | 100 | 100 | 100 | 100 |  |  |  |  | 
Cc1cc(Cl)ccc1Oc1ccc(CCNc2ncnc(C)c2Cl)cn1 [III-110] |  |  |  |  | 100 | 100 | 100 | 100 | 100 | 100 | 100 | 100 | 100 |  | 100 | 100 | 100 | 100 | 100 | protectant activity against cucumber downy mildew in vivo (cucumber downy mildew; 25 ppm): 100%
Cc1nc(Cl)c(Cl)c(NCCc2ccc(Oc3ccc(Cl)cc3)nc2)n1 [III-2527] |  |  |  |  | 100 | 100 | 100 | 100 |  |  | 100 |  | 100 | 100 |  | 100 |  | 100 | 100 | control effect against cucumber downy mildew (%) (cucumber downy mildew; 6.25 mg/L, protectant activity): 75%; control effect against cucumber downy mildew (%) (cucumber downy mildew; 12.5 mg/L, protectant activity): 100%; protectant activity against cucumber downy mildew in vivo (cucumber downy mildew; 12.5 ppm): 100%; protectant activity against cucumber downy mildew in vivo (cucumber downy mildew; 25 ppm): 100%
